In ChEMBL document CHEMBL1152175, “Synthesis, tubulin assembly, and antiproliferative activity against MCF7 and NCI/ADR-RES cancer cells of 10-O-acetyl-5'-hydroxybutitaxel” (2008):

How the values were obtained:
[1] = Inhibition of tubulin assembly
MCF7 = assay: Cytotoxicity against human MCF7 cells; assay type: functional; conditions: read-out: ED50 (the source's name)
NCI/ADR-RES = assay: Cytotoxicity against human NCI/ADR-RES cells; assay type: functional; conditions: read-out: ED50 (the source's name)

Row | ED50 [1] [nM] | SMILES | EC50 (MCF7) [nM] | EC50 (NCI/ADR-RES) [nM]
1 | 2200 | CC(=O)O[C@H]1C(=O)[C@@]2(C)[C@H]([C@H](OC(=O)c3ccccc3)[C@]3(O)C[C@H](OC(=O)[C@H](O)[C@@H](NC(=O)OC(C)(C)C)C(C)(C)CO)C(C)=C1C3(C)C)[C@]1(OC(C)=O)CO[C@@H]1C[C@@H]2O | 560 | 12500
2 | 1200 | CC(=O)O[C@H]1C(=O)[C@@]2(C)[C@H]([C@H](OC(=O)c3ccccc3)[C@]3(O)C[C@H](OC(=O)[C@H](O)[C@@H](NC(=O)c4ccccc4)c4ccccc4)C(C)=C1C3(C)C)[C@]1(OC(C)=O)CO[C@@H]1C[C@@H]2O [PACLITAXEL] | 2.1 | 2000
